Assay results from patent US20180055816A1, “PYRANONAPHTHOQUINONE COMPOUNDS AND METHODS OF USE THEREOF” (University of Kentucky Research Foundation, priority 2016, published 2018).
“Also recorded” adds a separate entry of the source.

Tests used:
p70S6K phosphorylation = p70S6K phosphorylation in HCT116 cells (Western blot); assay type: cell-based, human; conditions: HCT116, 12 h; 2 μM FB or UCF76-A, 100 nM rapamycin, 0.5 μM AZD8055
Experimental: (§1) HCT116 cells were treated with 1 μM MK2206 and 100 nM PD0325901 alone and in combination, 100 nM rapamycin, 0.5 μM AZD8055, 2 μM UCF76-A or 2 μM FB for 12 h followed by Western blot analysis for the indicated proteins.
(§2) Cells were lysed in NP-40 lysis buffer (50 mM Tris-HCl, pH 7.5, 150 mM NaCl, 1 mM EDTA, 1% NP-40, 10% glycerol, protease and phosphatase inhibitor cocktail). Western blot analysis were performed using equivalent total protein loadings as described previously. For immunoprecipitation, the cell lysates were incubated with the indicated antibody overnight followed by incubation with a 50% slurry of protein G sepharose beads for 3 h at 4° C. The beads were washed three times with the lysis buffer, and the immunoprecipitated protein complexes were resuspended in 2× Laemmli sample buffer followed by western blot analysis.

AKT phosphorylation = AKT phosphorylation in HCT116 cells (Western blot); assay type: cell-based, human; conditions: HCT116, 12 h; 2 μM FB or UCF76-A, 0.5 μM AZD8055, 1 μM MK2206
Experimental: as §1, §2

S6 phosphorylation = S6 phosphorylation in HCT116 cells (Western blot); assay type: cell-based, human; conditions: HCT116, 12 h; 2 μM FB or UCF76-A, 100 nM rapamycin, 0.5 μM AZD8055
Experimental: as §1, §2

[1] = system: cap-dependent translation; assay: Cap-dependent translation bicistronic luciferase reporter assay in HCT116 cells; assay type: cell-based, human; conditions: 12 h
Prx1 = biological target: T1, Prx1 (Homo sapiens, UniProt Q06830); assay: Prx1 catalytic activity inhibition; assay type: biochemical; conditions: recombinant Prx1, 1 hour incubation
T1 sequence (Q06830 1-199): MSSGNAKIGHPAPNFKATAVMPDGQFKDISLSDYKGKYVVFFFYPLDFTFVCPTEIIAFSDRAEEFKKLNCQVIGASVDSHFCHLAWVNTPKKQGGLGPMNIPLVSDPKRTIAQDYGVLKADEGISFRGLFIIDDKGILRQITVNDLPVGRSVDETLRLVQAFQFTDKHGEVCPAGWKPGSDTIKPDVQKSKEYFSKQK
Experimental: The recombinant Prx1 protein was incubated with the indicated concentration of FB, 12, or conoidin A for 1 hour. Data are presented as mean±s.e.m. (n=3 technical replicates per condition). […]. Statistical significance was determined by the Student's t-test.
Prx1 and Grx3 are antioxidant enzymes known to regulate oxidative stress. Prx1 catalyzes peroxide reduction of H2O2, whereas Grx3 functions as glutathione (GSH)-dependent oxidoreductase by participating in the conversion of reduced GSH to oxidized glutathione disulfide (GSSG). […] While Grx3 biochemical assays are lacking, FB and active analogs could lead to a decrease in GSH levels and an increase in GSSG levels in HCT116 cells (FIGS. 23A-B). As antioxidant enzymes utilize cysteine-containing active sites to reduce various cellular peroxide or disulfide substrates, the role of Prx1/Grx3 cysteines in FB ligand-binding was assessed through replacing their cysteines to alanines. […] Finally, mass spectrometry analysis confirmed the covalent modification of Prx1 and Grx3 by FB at these specific target sites. These cumulative studies provide strong validation of Prx1 and Grx3 as the predominate molecular targets of PNQs in cancer cells.

4E-BP1 phosphorylation [2] = assay: Inhibition of 4E-BP1 phosphorylation in HCT116 cells (Western blot); assay type: cell-based, human; conditions: for inhibition of 4E-BP1 phosphorylation: 12 h
Experimental: (§3) Compounds that pass this single dose filter are then tested in a CRC (HCT116) in vitro cytotoxicity assay and, in parallel, an in vitro assay to assess propensity for intracellular reactive oxygen species (ROS) production using the redox sensitive probe CeIIROX® Deep Red reagent (Invitrogen) by flow cytometry analysis (47).
as §2

HCT116 cells [3] = assay: Apoptosis assay (propidium iodide/Annexin V flow cytometry) in HCT116 cells; assay type: cell-based, human; conditions: HCT116, 72 hours
Experimental: (A) HCT116 cells were treated with different concentrations of FB and 12 for 12 hours. Cell lysates were precipitated with m^7GTP sepharose beads followed by Western blot analysis for the indicated proteins. (B) Inhibition of cap-dependent translation activity in HCT116 cells that were treated with the indicated compounds or DMSO as control for 12 hours was determined and analyzed as in FIG. 10A. (C) and (D) HCT116 cells were treated with different concentrations of FB and 12 for 72 hours. Apoptotic cells were analyzed by propidium iodide/Annexin V staining and flow cytometry (C). The results are expressed as the increased levels of apoptosis (D) by subtracting each of the DMSO-treated controls. All graphic data are presented as mean±s.e.m. (n=3 technical replicates per condition). *P<0.001 for 12 versus FB. Statistical significance was determined by the Student's t-test.
(§4) Cell growth was assessed as described previously. Briefly, 5×10^4 cells were seeded in 6-well plates in triplicates. After 24 h, cells were treated with the indicated compounds and incubated at 37° C. The cells were cultured for 3 days and the number of viable cells was counted using the Vi-CELL XR 2.03 (Beckman Coulter, Brea, Calif.). For apoptosis, cells were analyzed by flow cytometry using the Annexin V-FITC Apoptosis Detection Kit according to the manufacturer's protocol (BD Biosciences, San Jose, Calif.).

DLD-1 xenograft tumors = assay: DLD-1 colon cancer xenograft in nude mice; assay type: in vivo; conditions: 14 mg/kg intraperitoneal, daily five days a week, 2 weeks
Experimental: (§5) Male athymic nude mice (5-6 weeks old) were purchased from Taconic (Hudson, N.Y., USA). Experiments were carried out under a protocol approved by the University of Kentucky Institutional Animal Care and Use Committee. HCT116 and DLD-1 xenograft tumors were established by subcutaneously injecting 3×10^6 cells in a 1:1 mixture of media and Matrigel (BD Biosciences) into the right flank. For efficacy studies, mice were randomized among control and treated groups (n=8 per group) when tumors were well-established (˜120 mm^3). Compound 14 was prepared freshly in saline and administered by intraperitoneal injection at 14 mg/kg once per day, Mon-Fri per week. Control mice received saline solution. Tumor dimensions were measured using a caliper and tumor volumes were calculated as mm^3=π/6× larger diameter×(smaller diameter)^2. Tumors were excised and snap frozen in liquid nitrogen, homogenized in 2% SDS lysis buffer and then processed for Western blot analysis as described previously^5.

4E-BP1 phosphorylation [4] = assay: Western blot of xenograft tumor extracts; assay type: in vivo, mice; conditions: HCT116 or DLD-1 xenograft tumors, 6 h after the final treatment, 14 mg/kg
Experimental: FIGS. 34A-B. FB induces ROS production to repress 4E-BP1 phosphorylation and tumor growth in vivo. (A) Western blot analysis of representative tumors collected from mice in FIG. 32 6 h after the final treatment with 14 or vehicle control. (B) A proposed model for the anticancer mechanism of FB through targeting Prx1/Grx3 to induce ROS accumulation leading to inhibition of mTORC1/4E-BP1-mediated tarnaltion.
as §5

[5] = Tolerability in tumor-bearing nude mice (body weight, maximum tolerated dose); assay type: in vivo
Experimental: Mice bearing HCT116 or DLD-1 CRC xenograft tumors were treated with compound 14 at 14 mg/kg or with vehicle control once per day for 5 consecutive days each week. The mouse body weight was measured twice per week in control and treated groups using a weighing scale. The results represent the mean body weight±s.e.m. (n=8 mice/group). *P>0.05 for 14 versus vehicle control in HCT116 or DLD-1 xenograft tumors. Statistical significance was determined by the Student's t-test.
as §5, with “Tumors were excised and snap frozen in liquid nitrogen, homogenized in 2% SDS lysis buffer and then processed for Western blot analysis as described previously^5.” left out

HCT116 xenograft tumors = assay: HCT116 colon cancer xenograft in nude mice; assay type: in vivo; conditions: 14 mg/kg intraperitoneal, daily five days a week, 2 weeks
Experimental: as §5

[6] = system: intracellular reactive oxygen species (ROS); assay: Intracellular ROS production, CellROX Deep Red flow cytometry, HCT116 cells; assay type: cell-based, human
Experimental: as §3
The ROS production was determined using the CellROX Deep Red Flow Cytometry Assay Kit according to the manufacturer's protocol (Life Technologies). Briefly, cells were treated with 2 μM of the indicated compounds or DMSO as control for 1 h. After treatment, cells were incubated with 0.5 μM of CellROX Deep Red reagent for 1 h at 37° C., washed twice with PBS and immediately analyzed by a FACScan flow cytometer. For the measurement of cellular H2O2 level, cells were treated with 2 μM of the indicated compounds for 5 h.

HCT116 cells [7] = assay: Cell growth / cytotoxicity in HCT116 cells; assay type: cell-based, human; conditions: Homo sapiens, HCT-116; colorectal cancer cell line HCT116
Experimental: as §3, §4

Compound: COc1ccc(-c2ccc3c(N4CCOC[C@@H]4C)nc(N4CCOC[C@@H]4C)nc3n2)cc1CO [AZD8055]
- inhibition of p70S6K phosphorylation (p70S6K phosphorylation): potently inhibited
- inhibition of AKT phosphorylation (AKT phosphorylation): inhibited
- inhibition of S6 phosphorylation (S6 phosphorylation): potently inhibited

Compound: O=C1C[C@H]2O[C@@H](CCC(F)(F)F)C3=C(C(=O)c4c(Cl)ccc(O)c4C3=O)[C@H]2O1 [Compound 12, (3aR,5S,11bR)-10-Chloro-7-hydroxy-5-(3,3,3-trifluoropropyl)-3,3a,5,11b-tetrahydro-2H-benzo[g]furo[3,2-c]isochromene-2,6,11-trione]
- inhibition of cap-dependent translation [1]: more potent that FB
- inhibition of Prx1 catalytic activity (Prx1): potently inhibit
- fold more potent than FB as an inhibitor of 4E-BP1 phosphorylation (4E-BP1 phosphorylation [2]; relative to FB): up to 4 fold
- induction of apoptosis compared with FB (HCT116 cells [3]): more potent that FB

Compound: O=C1C[C@H]2O[C@@H](CCC(F)(F)F)C3=C(C(=O)c4c(Cl)ccc(OP(=O)(O)O)c4C3=O)[C@H]2O1 [Compound 14, (3aR,5S,11bR)-10-Chloro-2,6,11-trioxo-5-(3,3,3-trifluoropropyl)-3,3a,5,6,11,11b-hexahydro-2H-benzo[g]furo[3,2-c]isochromen-7-yl dihydrogen phosphate]
- tumor reduction (DLD-1 xenograft tumors): 56%
- 4E-BP1 phosphorylation in tumor extracts (4E-BP1 phosphorylation [4]): inhibition of 4E-BP1 phosphorylation
- body weight loss ([5]; 14 mg/kg once per day, 5 days each week, HCT116 or DLD-1 xenograft mice): without significant weight loss; also recorded: does not cause significant weight loss
- MTD ([5]; male, athymic nude, mouse, in vivo, intraperitoneal, 14 mg/kg, nude mice): 14 mg/kg
- tumor reduction (HCT116 xenograft tumors): 64%
- aqueous solubility (Aqueous solubility): aqueous soluble

Compound: C[C@@H]1CC(=O)[C@@H](O)[C@]2(O1)O[C@@H]1CC(=O)O[C@@H]1C1=C2C(=O)c2c(O)cccc2C1=O [GC, griseusen C]
- inhibition of 4E-BP1 phosphorylation (4E-BP1 phosphorylation [2]): notable inhibition
- ROS production compared with b47 [6]: slightly lower
- IC50 (HCT116 cells [7]): 127 nM

Compound: NC1(c2ccc(-c3nc4ccn5c(=O)[nH]nc5c4cc3-c3ccccc3)cc2)CCC1 [MK2206]
- inhibition of AKT phosphorylation (AKT phosphorylation): effective inhibition
- inhibition of 4E-BP1 phosphorylation (4E-BP1 phosphorylation [2]): negligible modulation
